Results published in US20260325542A1, “CANCER TARGETING COMPLEX, AND COMPOSITION COMPRISING SAME FOR PREVENTING OR TREATING CANCER” (EWHA UNIVERSITY - INDUSTRY COLLABORATION FOUNDATION, priority 2023, published 2026).

Legend:
[1] = target: T1, BSA (bovine serum albumin) (Bos taurus, UniProt P02769); experiment: In vitro binding of ECMal-PROTAC to albumin (thiol-maleimide reaction), RP-HPLC; details: ARV-771 140 μM, BSA 200 μM; mixed for more than 60 minutes
T1 construct: free Cys34 thiol reacts with maleimide
T1 sequence (P02769 25-607): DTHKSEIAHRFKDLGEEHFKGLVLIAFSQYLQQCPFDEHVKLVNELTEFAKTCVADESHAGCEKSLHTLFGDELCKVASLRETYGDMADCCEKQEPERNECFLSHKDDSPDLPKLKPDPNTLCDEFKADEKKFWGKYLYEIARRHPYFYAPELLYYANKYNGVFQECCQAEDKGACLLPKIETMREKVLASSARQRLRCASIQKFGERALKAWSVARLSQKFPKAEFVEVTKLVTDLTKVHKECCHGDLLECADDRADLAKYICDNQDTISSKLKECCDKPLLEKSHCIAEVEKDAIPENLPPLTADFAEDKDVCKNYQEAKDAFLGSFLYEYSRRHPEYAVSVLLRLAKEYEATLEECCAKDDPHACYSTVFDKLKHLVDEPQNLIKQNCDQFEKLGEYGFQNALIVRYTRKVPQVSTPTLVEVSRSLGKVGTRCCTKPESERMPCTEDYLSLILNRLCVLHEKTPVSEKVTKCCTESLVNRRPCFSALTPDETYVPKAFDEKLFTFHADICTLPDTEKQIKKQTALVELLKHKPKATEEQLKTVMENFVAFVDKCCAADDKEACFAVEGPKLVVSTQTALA
Experimental: The binding rate of ECMal-PROTAC from example 1 and albumin was confirmed through RP-HPLC. Specifically, a BSA solution (200 μM) diluted with PBS was co-incubated by mixing it with an ECMal-PROTAC aqueous solution (140 μM) of example 1 at a 1:1 volume ratio. The culture was collected at incubation times of 0 minutes, 5 minutes, 30 minutes, and 60 minutes. It was quenched with mercaptoethanol, and HPLC spectra for each sample were acquired through concentration gradient of the eluent (ACN/H2O, 20/80 to 80/20 (v/v), 30 minutes).
To verify the albumin binding ability of the complex for cancer targeting (ECMal-PROTAC) of example 1, the mixture of BSA and the complex for cancer targeting (ECMal-PROTAC) was analyzed by LC-MS spectrum, and compared with the LC-MS spectrum of free BSA.
FIG. 4 is the HPLC spectrum of a mixture of BSA and the complex for cancer targeting (ECMal-PROTAC). According to this, it can be seen that BSA and the complex for cancer targeting (ECMal-PROTAC) rapidly bind through a thiol-maleimide click chemical reaction. To confirm the albumin binding ability of the complex for cancer targeting (ECMal-PROTAC) of example 1, bovine serum albumin (BSA), which has a structure similar to human serum albumin (HSA), was used for analysis.
At this time, the HPLC spectra were also analyzed for a co-incubation of ARV-771 (140 μM) and BSA solution (200 μM) mixed at a 1:1 volume ratio as a comparative example, and for the ECMal-PROTAC solution and BSA solution alone without any treatment of example 1.
From the HPLC results for the BSA and complex for cancer targeting (ECMal-PROTAC) mixture in Experimental Example 1 and the thiol-blocked BSA and complex for cancer targeting (ECMal-PROTAC) mixture in Experimental Example 2, the reduction in the HPLC peak area associated with the complex for cancer targeting (ECMal-PROTAC) was quantified.

BRD4 = target: T2, BRD4 (Mus musculus, UniProt Q9ESU6); experiment: Western blot, BRD4 degradation in 4T1 cells; type: cell-based; details: 24 hours
T2 construct: Western blot after PROTAC (ARV-771 release, VHL recruiting)
Experimental: (§1) Accordingly, Western blot analysis was performed to confirm the anticancer ability by evaluating the presence or absence of degradation of BRD4 and other related proteins (e.g., c-Myc and Bcl-2) when cancer cells were treated with the complex for cancer targeting (ECMal-PROTAC) of example 1. The complex for cancer targeting (ECMal-PROTAC) of example 1 and ARV-771 were prepared as samples.
(§2) First, 1×10^5 4T1 cells were dispensed into each well of a 6-well culture plate and cultured for 24 hours at 37° C. and 5% carbon dioxide atmosphere. The cell culture medium was supplemented with various concentrations of ARV-771 (0 to 10 μM) or the complex for cancer targeting (ECMal-PROTAC) of example 1 (0 to 10 μM), and cultured at 37° C. for 24 hours. After the culture was completed, the cells were washed 3 times with PBS, and lysed with a lysis buffer containing 1% […]. Cell debris from the recovered lysate was removed by centrifugation at 12,000 rpm for 25 minutes. After recovering the supernatant, the protein amount was measured using a BCA kit. The supernatant was loaded onto a 10% sodium dodecyl sulfate-polyacrylamide gel. Electrophoresis (SDS-PAGE) was performed, followed by blotting onto a polyvinylidene difluoride (PVDF) membrane. After blotting, the PVDF membrane was treated with 5% BSA-containing tris buffered saline containing 0.1% Tween 20 (TBS-T) for 2 hours to suppress the non-specific binding of IgG (immunoglobulin G). It was immediately exposed to a rabbit anti-mouse primary antibody (1,000:1). After treating at 4° C. for 24 hours, the PVDF membrane was washed 3 times with TBS-T and further incubated with an HRP-conjugated mouse anti-rabbit IgG antibody at room temperature for 1 hour. The immunoreactive bands on the PVDF membrane were analyzed through an ECL (enhanced chemiluminescence) system.

4T1 cells = experiment: CCK-8 assay, toxicity on cancer cells; type: cell-based, mouse; details: CCK-8, 48 hours
Experimental: The toxicity of ARV-771 and ECMal-PROTAC on cancer cells was analyzed by the CCK-8 (cell counting kit-8) assay. 4T1 cells were dispensed into a 96-well culture plate at 3×10^3 cells per well. They were cultured for 24 hours at 37° C. and 5% carbon dioxide atmosphere. The cells were treated with different concentrations of ARV-771 (0.01 to 100 μM), the complex for cancer targeting (ECMal-PROTAC) of example 1 (0.01 to 100 μM), and the complex for cancer targeting (Mal-PROTAC) of example 2 (0.01 to 100 μM) separately, and cultured for 48 hours. After exposing each well to 10% CCK-8-containing culture media for 30 minutes, the viability of 4T1 cells treated with ARV-771 or 4T1 cells treated with ECMal-PROTAC or Mal-PROTAC was analyzed with a microplate reader. The change in cell viability according to the concentration of ARV-771 or ECMal-PROTAC or Mal-PROTAC was calculated using GraphPad Prism 8 software (GraphPad Software, San Diego, CA, USA) by fitting the IC50 (haf-maximal inhibitory concentration) value.

4T1 tumor = experiment: In vivo anticancer efficacy, tumor size in 4T1 cancer animal model; parameters: species or system mouse; details: 10 mg/kg, tail vein, once every 3 days for 15 days
Experimental: 5-week-old female Balb/c and Balb/c nu/nu mice were purchased from NaraBio, Inc (Seoul, Republic of Korea). The mice underwent a 2-week acclimatization period before the example. The mice were raised under free-feeding conditions in a breeding room maintained at a temperature of 22±2° C. and humidity of 40-60% during the example. The light and dark cycle was regulated at 12-hour intervals. All examples were conducted in compliance with the relevant laws and institutional guidelines of the KIST Institutional Animal Care and Use Committee (IACUC; Approval No.: 2021-143).
Cancer animal models were prepared by inoculating 1×10^6 4T1 cells into the left thigh of the mice, and raising them until the tumor volume reached 50-80 mm^3.
For the preparation of the control group, the comparison group, and the example group, mice were randomly divided into groups of 5.
(§3) The control group was administered saline (10 mg/kg) once every 3 days for 15 days through the tail vein (total 4 administrations). The comparison group was administered ARV-771 (10 mg/kg) once every 3 days for 15 days through the tail vein (total 4 administrations). The example group was administered ECMal-PROTAC 10 mg/kg (wquiv. to ARV-771) of example 1 once every 3 days for 15 days through the tail vein (total 4 administrations).
(§4) Tumor size and body weight were measured every two days for the control group, the comparison group, and the example group.

[2] = Body weight and systemic side effects; type: in vivo, mouse; details: 10 mg/kg, i.v., once every 3 days for 15 days
Experimental: as §3, §4

[3] = tested on: organ tissue and cancer tissue; experiment: H&E histology of major organs and cancer tissue; type: in vivo, mouse; details: excised after 15 days
Experimental: as §3
The control group, the comparison group, and the example group were euthanized after 15 days, and major organs (heart, liver, lung, spleen, kidney) and cancer tissue were excised.
Furthermore, to analyze cancer cell apoptosis, TUNEL (terminal deoxynucleotidyl transferase dUTP nick end labeling) analysis was performed on cancer tissue excised from the control group, the comparison group, and the example group. Next, histological analysis was performed by H&E (hematoxylin & eosin) staining of the major organ tissues and cancer tissue of each excised group.
According to FIG. 29, major organ tissue and cancer tissue were excised from the control group, the comparison group, and the example group after 15 days. The excised organ tissue and cancer tissue were stained with H&E (hematoxylin & eosin). The H&E stained tissue was observed using a BX51 optical microscope (Olympus, Tokyo, Japan) and a TCS SP8 confocal laser microscope.

liver tissue = experiment: TUNEL analysis of liver tissue; type: in vivo, mouse; details: administered alone (comparison group)
BRD4 and c-Myc = experiment: Immunofluorescence of excised cancer tissue (DAPI, anti-BRD4, anti-c-Myc); type: in vivo, mouse; details: FIG. 33
Experimental: as §3
FIG. 33 is an image taken with a confocal laser scanning microscope after staining cancer tissue excised from the control group (Control, Saline), the comparison group (ARV-771, intravenous injection), and the example group (ECMal-PROTAC, intravenous injection) with DAPI, anti-BRD4, and anti-c-Myc.

c-Myc = experiment: Western blot, c-Myc level in 4T1 cells; type: cell-based, mouse; details: 0 to 10 μM, 24 hours
Experimental: as §1
as §2, with “After blotting, the PVDF membrane was treated with 5% BSA-containing tris buffered saline containing 0.1% Tween 20 (TBS-T) for 2 hours to suppress the non-specific binding of IgG (immunoglobulin G). It was immediately exposed to a rabbit anti-mouse primary antibody (1,000:1). After treating at 4° C. for 24 hours, the PVDF membrane was washed 3 times with TBS-T and further incubated with an HRP-conjugated mouse anti-rabbit IgG antibody at room temperature for 1 hour.” left out

Bcl-2 = experiment: Western blot, Bcl-2 level in 4T1 cells; type: cell-based, mouse; details: 0 to 10 μM, 24 hours
Experimental: as §1
as §2, with “After blotting, the PVDF membrane was treated with 5% BSA-containing tris buffered saline containing 0.1% Tween 20 (TBS-T) for 2 hours to suppress the non-specific binding of IgG (immunoglobulin G). It was immediately exposed to a rabbit anti-mouse primary antibody (1,000:1). After treating at 4° C. for 24 hours, the PVDF membrane was washed 3 times with TBS-T and further incubated with an HRP-conjugated mouse anti-rabbit IgG antibody at room temperature for 1 hour.” left out

[4] = Particle size by DLS before and after binding to albumin; type: physicochemical; details: BSA 200 μM and ECMal-PROTAC 140 μM in PBS, 1:1, 30 minutes
Experimental: A BSA solution (200 μM) diluted with PBS was co-incubated by mixing it with an ECMal-PROTAC aqueous solution (140 μM) of example 1 at a 1:1 volume ratio.

Compound: Cc1ncsc1-c1ccc([C@H](C)NC(=O)[C@@H]2C[C@@H](O)CN2C(=O)[C@@H](NC(=O)COCCCOCCNC(=O)C[C@@H]2N=C(c3ccc(Cl)cc3)c3c(sc(C)c3C)-n3c(C)nnc32)C(C)(C)C)cc1 [ARV-771, reference compound]
- interaction with BSA [1]: did not form an interaction
- DC50 (BRD4; Western blot, read-out: DC50 (half-maximal degradation concentration), BRD4): 3.38 µM
- IC50 (4T1 cells; Mus musculus, 4T1, FIGS. 15A and 15B, read-out: IC50 against cancer cells): 6.38 µM
- cancer size vs control (saline) (4T1 tumor): no significant difference
- increase of cancer size from Day 0 (4T1 tumor): 14.8 times
- systemic side effects [2]: did not show serious systemic side effects
- weight loss [2]: no significant weight loss was observed
- damage in cancer tissue (H&E) [3]: did not observe serious damage
- damage in organ tissue (H&E) ([3]; liver, lung, spleen, kidney, heart): did not observe serious damage
- effect on normal tissue and cancer tissue (liver tissue): affect both normal tissue and cancer tissue
- BRD4 degradation in cancer tissue (BRD4 and c-Myc): insufficient to induce apoptosis in cancer tissue

Compound: Cc1ncsc1-c1ccc([C@H](C)NC(=O)[C@@H]2C[C@@H](OC(=O)CNC(=O)CCOCCOCCNC(=O)CCN3C(=O)C=CC3=O)CN2C(=O)[C@@H](NC(=O)COCCCOCCNC(=O)C[C@@H]2N=C(c3ccc(Cl)cc3)c3c(sc(C)c3C)-n3c(C)nnc32)C(C)(C)C)cc1 [Mal-PROTAC]
- degradation of overexpressed BRD4 protein (BRD4; 0 to 10 μM): induce BRD4 deficiency
- c-Myc level (c-Myc): reduced expression
- Bcl-2 level (Bcl-2): reduced expression
- IC50 compared to native ARV-771 (4T1 cells): slight increase in IC50 compared to native ARV-771

Compound: BSA: bovine serum albumin; 98%
- average particle size [4]: 5.43±1.42 nm
